{"source": "patent US20240415880A1", "about": "“Treatment of Breast and Other Cancers Using Zinc Chloride Instead of Radiation” (priority 2023, published 2024)", "origin": "cited, not measured here", "key": {"[1]": {"test_system": "cancers of the mouth, accessory nasal sinuses, larynx, parotid and other salivary glands, anal region, vulva and accessible sarcomas"}, "[2]": {"test_system": "locally advanced breast cancer tumors", "details": "case presentations"}, "advanced melanomas": {"test_system": "advanced melanomas", "details": "103 consecutive advanced melanomas; zinc chloride combined with surgery"}}, "data": [{"compound": "[Cl-].[Cl-].[Zn+2]", "note": "[zinc chloride, Zinc chloride]", "values": [{"measurement": "treatment outcome of cancers", "setting": "[1]", "value": "successfully treated"}, {"measurement": "healing of locally advanced breast cancer tumors", "setting": "[2]", "value": "remarkable healing"}, {"measurement": "improvement in cure rates over conventional surgery of melanomas", "setting": "advanced melanomas", "value": "significant and statistical (p=0.003) improvement"}]}]}
